According to patent US20230087994A1, “TARGETED BIFUNCTIONAL DEGRADERS” (YALE UNIVERSITY, priority 2019, published 2023):

Experiments:
α-DNP antibody [1] = test: Depletion of α-DNP antibody from serum in mice (ELISA); type: in vivo; conditions: i.p.; FIG. 79A
HepG2 cells [2] = test: DNP-GN3-mediated endocytosis of fluorescently labeled α-DNP antibody by adherent HepG2 cells; type: cell-based, human; conditions: competitive binders at high concentrations; FIG. 88
α-DNP antibody [3] = test: Depletion of α-DNP antibody from serum in mice (ELISA); type: in vivo; conditions: negative control compound; FIG. 95
Method: FIG. 94 illustrates that serum levels of α-DNP antibody decrease more rapidly following repeated treatment with DNP-GN3. Serum antibody levels were measured using an ELISA assay. Each experimental group contained three mice. Statistical differences in experiments involving in vivo depletion of α-DNP antibody were assessed by repeated measures two-way ANOVA with Tukey's tests for post-hoc comparison of simple effects between each of the treatment groups and PBS.
Single doses of DNP-GN3 were also found to be efficacious at mediating α-DNP antibody depletion, albeit less effectively than daily dosing (FIG. 96). […] Therefore, it was concluded that DNP-GN3 is able to mediate the depletion of a monoclonal antibody from serum, and functions across a wide range of target protein concentrations and dosing regimens.
DNP-GN3 was also found to be efficacious in depleting polyclonal α-DNP antibody from serum collected from mice immunized with DNP-keyhole limpet haemocyanin (KLH) (FIG. 97). […] Thus, the small molecule DNP-GN3 is not restricted in function to only monoclonal mouse antibodies, but is also effective at removing polyclonal α-DNP antibodies from circulation in mice.

[4] = Tolerability of DNP-GN3 and DNP-OH3 in mice (body weight, AST, ALT); type: in vivo; conditions: all tested concentrations; FIGS. 93A-93C
Method: FIGS. 93A-93C illustrate that DNP-GN3 and DNP-OH3 are not toxic to mice at all tested concentrations. FIG. 93A: mouse body weight following treatment with DNP-GN3 or DNP-OH3. Statistical differences were analyzed by T test. FIG. 93B: levels of aspartate transaminase (AST) in treated mice. Dashed lines represent the normal range. FIG. 93C: levels of alanine transaminase (ALT) in treated mice. Dashed lines represent the normal range.

[5] = tested on: ASGPR on the surface of immortalized human hepatocyte HepG2 cells; test: DNP-GN3-mediated ternary complex formation: association of fluorescently labeled α-DNP antibody with HepG2 cells in suspension; type: cell-based; conditions: competition; FIG. 86B-86C; read-out: IC50, decrease of DNP-GN3-mediated cellular fluorescence
Source text: It was investigated whether DNP-GN3 could mediate the formation of a ternary complex between a fluorescently labeled α-DNP antibody and ASGPR on the surface of immortalized human hepatocyte HepG2 cells in suspension. […] The observed bell-shaped response to DNP-GN3 concentration is consistent with the prozone effect commonly observed in systems wherein a ternary complex is formed.

HepG2 cells [6] = test: DNP-AF3-mediated endocytosis of fluorescently labeled α-DNP antibody by HepG2 cells (flow cytometry); type: cell-based, human; conditions: 40 nM DNP-AF3, 100 nM antibody; ASF 2.07 μM; AF and GalNAc 1.25 mM; FIG. 105
Method: The intracellular fluorescence of cells that were incubated at 37° C. with both fluorescently labeled α-DNP antibody and DNP-AF3 for a given amount of time was examined. Cells were then washed, removed from the plate with trypsin, and subjected to flow cytometry. Trypsin treatment is expected to cleave ASGPR and surface-bound α-DNP antibody from cells, and therefore the cellular fluorescence observed in these assays is expected to arise only from internalized antibodies.
It was then determined if reagents which inhibit ternary complex formation inhibit endocytosis mediated by DNP-AF3. In order to account for non-specific antibody association with cells, the mean fluorescence intensity of an aliquot of cells which had been treated with α-DNP antibody but not DNP-AF3 was subtracted from each reading. […] In the presence of 2.38 μM (0.1 mg/mL) ASOR, the cell population fluorescence was decreased to 4.66e5 (FIG. 105); at this ASOR concentration, ternary complex formation is decreased by approximately 70%. Because ternary complex is not inhibited completely at this concentration of ASOR, it is expected that productive endocytic events are still taking place.

[7] = tested on: ASGPR on the surface of HepG2 cells; test: DNP-AF3-mediated ternary complex formation: α-DNP antibody association with HepG2 cells (flow cytometry); type: cell-based, human; conditions: 40 nM DNP-AF3, 100 nM α-DNP antibody; FIG. 99; read-out: IC50, inhibition of DNP-AF3-mediated ternary complex formation
Method: DNP-AF3 utilizes trivalent display of a higher affinity ASGPR ligand to engage the receptor. First, the effect of DNP-AF3 concentration on α-DNP antibody association with cells was determined (FIG. 98). In these experiments, a constant amount of α-DNP antibody and cells was incubated with various concentrations of DNP-AF3. The mean fluorescence intensity of the cell population was measured using flow cytometry. In order to account for background cellular fluorescence and non-DNP-AF3 mediated antibody association with cells, the mean fluorescence intensity of a sample of cells which had been treated with α-DNP antibody but not DNP-AF3 was subtracted from each data point.
Next, whether increasing concentrations of a competitive binder of the α-DNP antibody inhibits ternary complex formation was investigated. […] However, different preparations of the HepG2 cells and/or compound gave varying mean fluorescence intensity for the cell population between different independent experimental replicates. Therefore, for competition studies, inhibition of ternary complex formation was reported rather than mean fluorescence intensity of the cell population. 100% ternary complex formation is corrected to the fluorescence of a cell population treated with both 40 nM DNP-AF3 and 100 nM α-DNP antibody, while 0% ternary complex formation is corrected to a mixture of cells and α-DNP antibody without DNP-AF3.

Question: For O=C(CCOCC(COCCC(=O)NCCOCCOCCO)(COCCC(=O)NCCOCCOCCO)NC(=O)CNC(=O)COCCOCCOCCNc1ccc([N+](=O)[O-])cc1[N+](=O)[O-])NCCOCCOCCO [DNP-OH3, reference compound], which “degradation of injected anti-DNP IgG antibodies in mouse serum” value (α-DNP antibody [1]) is on record?
Answer: did not show such effect

Question: What about the “effect on DNP-GN3-mediated α-DNP antibody endocytosis” value (HepG2 cells [2]) of the same compound?
Answer: significantly decreased

Question: And the “antibody depletion from serum” value (α-DNP antibody [3])?
Answer: No accelerated antibody depletion

Question: What about the toxicity to mice [4] of the same compound?
Answer: not toxic

Question: And the IC50 [5]?
Answer: 36 nM

Question: What about the “effect on DNP-AF3-mediated α-DNP antibody endocytosis” value (HepG2 cells [6]) of the same compound?
Answer: decreased to near-background levels

Question: What about the IC50 [7] of the same compound?
Answer: 40.6 nM
